Four molecules from patent US8198405B2, “Stabilized alpha helical peptides and uses thereof” (Dana-Farber Cancer Institute, Inc., priority 2003, dated 2012) can be followed below.

Where a SMILES comes first, the peptide text is derived from it. [ ]: non-standard residue; d: D form. The star is where a group is joined. FITC = O=C1OC2(c3ccc(O)cc3Oc3cc(O)ccc32)c2ccc(NC(=S)*)cc21; Nle = CCCC[C@H](N)C(=O)O; βAla = NCCC(=O)O

The conditions of series [1]: 10 mg/kg FITC-conjugated peptide.
Procedure: Levels of intact FITC-compound in 25 μL of fresh serum were then measured.
The subject of series [2] is Jurkat T-cell leukemia cells. In words: Cellular uptake of FITC-peptides by FACS.
Source text: BID helix 6, a cell permeable and membrane perturbing peptide, was used as a positive control for FITC-labeling in this experiment.
Series [3] deals with Jurkat T-cell leukemia cells. In words: Confocal microscopy, intracellular localization. The series is classed as cell-based. The settings on record: fixed cells. On the procedure: Confocal microscopy experiments were employed in order to determine the intracellular localization of SAHB3BIDA. Jurkat T-cell leukemia cells were incubated with FITC-labeled compounds as described above or with serum replacement at 4 hours followed by additional 16 hours incubation at 37° C., and after washing twice with PBS, were cytospun at 600 RPM for 5 minutes onto superfrost plus glass slides (Fisher). Cells were then fixed in 4% paraformaldehyde, washed with PBS, incubated with TO-PRO-3 iodide (100 nM) (Molecular Probes) to counterstain nuclei, treated with Vectashield mounting medium (Vector), and then imaged by confocal microscopy (BioRad 1024). For double labeling experiments, fixed cells were additionally incubated with primary antibody to TOM20, and rhodamine-conjugated secondary antibody prior to TOPRO-3 counterstaining. […] Treated Jurkats were washed twice and then resuspended in PBS and wet mount preparations analyzed with a BioRad 1024 (Beth Israel/Deaconess Center for Advanced Microscopy) or Zeiss LSM510 laser scanning confocal microscope (Children's Hospital Boston Imaging Core).

The test system of series [4] is purified mouse liver mitochondria. In words: Cytochrome c release assay (ELISA), wild-type mitochondria. The class given is biochemical. On the procedure:
(§1) In order to assess the biological activity of SAHB3BID compounds in vitro, cytochrome c release assays were performed using purified mouse liver mitochondria. Mitochondria (0.5 mg/mL) were incubated for 40 minutes with 1 μM and 100 nM of SAHB3BID compounds and then supernatants and mitochondrial fractions isolated and subjected to cytochrome c ELISA assay. Background cytochrome c release (10-15%) was subtracted from total release for each sample, and the percent actual cytochrome c release was determined (FIG. 12). […] In each case, except for the double cross-linked SAHB3BIDE (which may lack critical amino acids for biological activity or, in this case, be overly constrained by the dual cross-links), there is approximately a doubling of cytochrome c release in response to 1 μM SAHB3BID compounds compared to the unmodified peptide (FIG. 12a). […] BID mutants with defective BH3 domains can promote BAK-independent cytochrome c mobilization (Scorrano et al, Dev Cell, 2:55), and the highly hydrophobic BID helix 6 has been implicated in this activity (L. Scorrano, S. J. Korsmeyer, unpublished results).
Similar to the above experiment, mouse liver mitochondria from wild-type and Bak−/− mice were exposed to the compounds at various concentrations and assayed for cytochrome c release at 10 and 40 minute intervals. […] Thus, SAHB3BIDA and B display a 10-25 fold enhancement in cytochrome c release activity at the 40 minute time point.

Another series has as its target T1, BAX (Homo sapiens, UniProt Q07812).
T1 construct: Full-length BAX protein was prepared as previously described (Suzuki et al, Cell, 103:645); made in house
In words: Fluorescence polarization direct binding assay. The conditions noted are these: full-length BAX.

Series [5] relates to Jurkat cells engineered to overexpress BCL-2. In words: Apoptosis by annexin V flow cytometry. The class given is cell-based. Here is the method:
Indeed, the pro-apoptotic effect of 10 uM SAHB3BIDA and B on “wild-type” Jurkats was abolished in the BCL-2 overexpressing cells. […] The observed pro-apoptotic effects are selectively abolished by gly to glu mutation of SAHB3BIDA and cellular overexpression of BCL-2, findings which underscore that SAHB3BID compounds function via the defined mitochondrial apoptosis pathway.

Another series relates to BCL-XL. In words: 15N/1H HSQC NMR of 15N-labeled BCL-XL. The class given is binding. The settings on record: 1:1 complex, 0.1 mM. On the procedure: Briefly, Escherichia coli BL21 (DE3) containing the plasmid encoding C-terminal deleted BCL-XL were cultured in M9-minimal medium containing ^15NH4Cl (Cambridge Isotope Laboratories) to generate uniformly ^15N-labeled protein. Recombinant proteins were isolated from bacteria. […] Two dimensional ^15N/^1H heteronuclear single-quantum spectra were recorded for the two complexes and analyzed for changes in resonance upon ligand binding.

The next series has as its system SEMK2-M1 leukemia cells. In words: SEMK2 leukemia in vivo, total body luminescence.
The test system of series [6] is REH, MV4; 11, and SEMK2 cell lines. In words: Apoptosis induction assays. The series is classed as cell-based.
Series [7] has as its system mouse liver mitochondria isolated from Bak-/- mice. The experiment in a line: Cytochrome c release assay, Bak-/- mitochondria (BAK-independent release). The settings on record: 1 μM, 40 minutes. The class given is biochemical. On the procedure: as §1
Similar to the above experiment, mouse liver mitochondria from wild-type and Bak−/− mice were exposed to the compounds at various concentrations and assayed for cytochrome c release at 10 and 40 minute intervals. […]

For a further series, the target named is T2, BCL-2 (Homo sapiens, UniProt P10415).
T2 construct: containing the plasmid encoding C-terminal deleted GST-BCL-2; made in house; host or cells: Escherichia coli BL21 (DE3)
In words: Fluorescence polarization direct binding assay.

For the next series, the target named is T3, GST-BCL-2 (Homo sapiens, UniProt P10415).
T3 construct: containing the plasmid encoding C-terminal deleted GST-BCL-2; made in house; host or cells: Escherichia coli BL21 (DE3)
In words: Fluorescence polarization competitive binding (displacement of FITC-BID BH3).

For a further series, the target named is T4, trypsin (Bos taurus, UniProt P00760).
T4 sequence (P00760 24-246): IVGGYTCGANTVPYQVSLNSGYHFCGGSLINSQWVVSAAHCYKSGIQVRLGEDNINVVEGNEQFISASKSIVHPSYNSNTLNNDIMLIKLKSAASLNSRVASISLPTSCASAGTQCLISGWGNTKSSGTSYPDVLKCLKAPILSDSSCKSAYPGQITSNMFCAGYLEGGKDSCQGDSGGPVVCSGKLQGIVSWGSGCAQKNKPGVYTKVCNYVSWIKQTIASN
The experiment in a line: In vitro trypsin proteolysis (trypsin agarose). The series is classed as in vitro ADME. The conditions noted are these: first order rate constant, triplicate. On the procedure: The amide bond of the peptide backbone is susceptible to hydrolysis by proteases, thereby rendering peptidic compounds vulnerable to rapid degradation in vivo. Peptide helix formation, however, buries the amide backbone and therefore shields it from proteolytic cleavage. […] SAHB3BIDA and unmodified peptide were incubated with trypsin agarose and the reactions quenched at various time points by centrifugation and subsequent HPLC injection to quantitate the residual substrate by ultraviolet absorption at 280 nm. […] Reactions were quenched by tabletop centrifugation at high speed; remaining substrate in the isolated supernatant was quantified by HPLC-based peak detection at 220 nm.

T3 sequence (P10415 1-218 limits assumed): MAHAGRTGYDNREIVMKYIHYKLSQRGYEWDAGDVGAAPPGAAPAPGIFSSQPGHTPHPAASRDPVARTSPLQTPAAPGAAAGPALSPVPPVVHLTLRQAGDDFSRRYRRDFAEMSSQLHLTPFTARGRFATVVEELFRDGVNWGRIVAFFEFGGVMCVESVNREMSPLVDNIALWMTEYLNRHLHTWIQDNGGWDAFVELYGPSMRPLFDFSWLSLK
T2 sequence (P10415 1-218 limits assumed): as above
T1 sequence (Q07812 whole entry): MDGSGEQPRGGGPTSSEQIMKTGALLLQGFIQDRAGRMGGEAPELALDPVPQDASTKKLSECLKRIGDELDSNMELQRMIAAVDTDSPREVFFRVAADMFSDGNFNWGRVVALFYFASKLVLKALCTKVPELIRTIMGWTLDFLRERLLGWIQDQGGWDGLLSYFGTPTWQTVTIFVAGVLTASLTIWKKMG

In the case of `CCCC[C@H](NC(=O)[C@H](CO)NC(=O)[C@H](CC(=O)O)NC(=O)CNC(=O)[C@@H](NC(=O)[C@H](CCC(N)=O)NC(=O)[C@H](C)NC(=O)[C@H](CC(C)C)NC(=O)[C@H](Cc1c[nH]cn1)NC(=O)[C@H](CCCNC(=N)N)NC(=O)[C@H](C)NC(=O)[C@@H](NC(=O)[C@H](CC(N)=O)NC(=O)[C@H](CCCNC(=N)N)NC(=O)[C@@H](NC(=O)[C@@H](NC(=O)[C@H](CC(=O)O)NC(=O)[C@@H](N)CCC(=O)O)[C@@H](C)CC)[C@@H](C)CC)[C@@H](C)CC)C(C)C)C(=O)N[C@@H](CC(=O)O)C(=O)N[C@@H](CCCNC(=N)N)C(=O)N[C@@H](CO)C(=O)N[C@H](C(=O)N[C@@H](Cc1c[nH]c2ccccc12)C(N)=O)[C@@H](C)CC` [BID BH3, reference compound] (H-EDIIRNIARHLAQVGDS[Nle]DRSIW-NH2), the “percent detectable in serum” value in series [1] (one hour after injection) turned out to be 12%.
Take `CCCC[C@H](NC(=O)[C@H](CO)NC(=O)[C@H](CC(=O)O)NC(=O)CNC(=O)[C@@H](NC(=O)[C@H](CCC(N)=O)NC(=O)[C@H](C)NC(=O)[C@H](CC(C)C)NC(=O)[C@H](Cc1c[nH]cn1)NC(=O)[C@H](CCCNC(=N)N)NC(=O)[C@H](C)NC(=O)[C@@H](NC(=O)[C@H](CC(N)=O)NC(=O)[C@H](CCCNC(=N)N)NC(=O)[C@@H](NC(=O)[C@@H](NC(=O)[C@H](CC(=O)O)NC(=O)[C@H](CCC(=O)O)NC(=O)CCNC(=S)Nc1ccc2c(c1)C(=O)OC21c2ccc(O)cc2Oc2cc(O)ccc21)[C@@H](C)CC)[C@@H](C)CC)[C@@H](C)CC)C(C)C)C(=O)N[C@@H](CC(=O)O)C(=O)N[C@@H](CCCNC(=N)N)C(=O)N[C@@H](CO)C(=O)N[C@H](C(=O)N[C@@H](Cc1c[nH]c2ccccc12)C(N)=O)[C@@H](C)CC` [FITC-BID BH3] ({FITC-βAla}-EDIIRNIARHLAQVGDS[Nle]DRSIW-NH2): in [2], the “FITC labeling of cells at 4° C. and 37° C.” value is “did not label the cells at either temperature”; the “FITC labeling with or without sodium azide and 2-deoxyglucose” value is recorded as “no labeling for either condition”. Further, in series [3], the “intracellular distribution of fluorescence” value is on record as “no cellular labeling”.
As for `CCCC[C@H](NC(=O)[C@]1(C)CCCC=CCCC[C@](C)(NC(=O)[C@H](C)NC(=O)[C@H](CC(C)C)NC(=O)[C@H](Cc2c[nH]cn2)NC(=O)[C@H](CCCNC(=N)N)NC(=O)[C@H](C)NC(=O)[C@@H](NC(=O)[C@H](CC(N)=O)NC(=O)[C@H](CCCNC(=N)N)NC(=O)[C@@H](NC(=O)[C@@H](NC(=O)[C@H](CC(=O)O)NC(=O)[C@H](CCC(=O)O)NC(C)=O)[C@@H](C)CC)[C@@H](C)CC)[C@@H](C)CC)C(=O)N[C@@H](C(C)C)C(=O)NCC(=O)N[C@@H](CC(=O)O)C(=O)N1)C(=O)N[C@@H](CC(=O)O)C(=O)N[C@@H](CCCNC(=N)N)C(=O)N[C@@H](CO)C(=O)N[C@H](C(=O)N[C@@H](Cc1c[nH]c2ccccc12)C(N)=O)[C@@H](C)CC` [SAHB3BIDA], the “cytochrome c release at ten-fold lower dosing, in words” value in series [4] (100 nM, 40 minutes) was “retain selective BAK-dependent cytochrome c release activity”. Also, the “cytochrome c release at 10 minutes, in words” value in series [4] (10 minutes) is “significant cytochrome c release”. The same molecule showed an EC50 in [4] (40 minutes) of 310 nM. For the same molecule, the “BAX binding, in words” value on BAX is “measurable binding”. Moreover, the “pro-apoptotic effect in BCL-2 overexpressing cells” value in series [5] (10 uM) was “abolished”. Moreover, the “overcoming BCL-2 protection by dose escalation” value in series [5] (dose response (FIG. 24)) is recorded as “can be overcome by dose escalation”. In addition, the “BCL-XL binding site, in words” value in the series on BCL-XL is given as “binds to the defined hydrophobic pocket of BCL-XL”. Besides, the “tumor burden (total body luminescence)” value with SEMK2-M1 leukemia cells (10 mg/kg intravenously on days 1, 2, 3, 5, 6, measured days 4 and 7) was “leukemic suppression”; in the series with SEMK2-M1 leukemia cells (10 mg/kg or 5 mg/kg intravenously on days 1, 2, 3, 6, 7, measured days 4 and 8), “dose-dependent manner”. The “apoptosis induction, in words” value in series [6] was “specific apoptosis induction”. Also, the “BAK-independent cytochrome c release, in words” value in [7] is given as “BAK-independent cytochrome c release is observed”. The IC50 was 2700 nM in the series on RS4;11; 10200 nM in the series with REH; 4700 nM with MV4;11; 62 nM on GST-BCL-2 (read-out: IC50 for displacement of prebound FITC-BID BH3 from BCL-2); 2200 nM in the series with Jurkat; 1600 nM with SEMK2. The “percent of the input still measurable in serum” value in [1] (22 hours post-injection) came out at 13%. For the same molecule, the “enhancement in BCL-2 binding affinity compared to unmodified BID BH3 peptide” value at BCL-2 is 6 fold. In addition, the dissociation constant Kd at BCL-2 (fluorescinated compounds 25 nM, GST-BCL2 25 nM-1000 nM (FIG. 11d)) amounted to 38.8 nM. Further, on GST-BCL-2, the “increase in displacement potency compared to unmodified BID BH3 peptide” value is recorded as “more than 13 fold”. For the same molecule, the “GST-BCL2 binding, in words” value on GST-BCL-2 (competition with FITC-labeled unmodified BID BH3) is “highest affinity binding”. For the same molecule, on trypsin, the “enhancement in trypsin resistance compared to the unmodified peptide” value was 3.5 fold.

B1: myristolated BID protein: maximally activated myristolated BID protein (protein, UniProt P55957 1-195, looked up)
BH3-interacting domain death …: MDCEVNNGSSLRDECITNLLVFGFLQSCSDNSFRRELDALGHELPVLAPQWEGYDELQTDGNRSSHSRLGRIEADSESQEDIIRNIARHLAQVGDSMDRSIPPGLVNGLALQLRNTSRSEEDRNRDLATALEQLLQAYPRDMEKEKTMLVLALLLAKKVASHTPSLLRDVFHTTVNFINQNLRTYVRSLARNGMD
modifications: myristoylated
In the case of B1, the cytochrome c released entry in series [4] (30 nM) is “approximately 65%”.
